Literature values as cited in patent publication US10392669B2, “Methods and systems for determination of an effective therapeutic regimen and drug discovery” (DNA-SEQ, INC., priority 2014, dated 2019).
“Also recorded” adds a separate entry of the source. Blank lines part the entries; values can stand above or below the compound they belong to.

Key:
[1] = tested on: catalytic cores of kinases; details: cancer patients, bracketed literature reference; for Activating Mutations: known activating mutations within the kinase catalytic core listed for the drug; for Resistant Mutations: known resistance mutations within the kinase catalytic core listed for the drug
ERBB2 T798I = ERBB2 T798I (Homo sapiens, UniProt P04626, T798I); details: Gene ERBB2, Mutation T798I; full finding: Not reported to be in a before/after study, but does cause drug resistance
kinase DFG motif = details: crystal structure library

SMILES: O=C(c1ccc(F)c(F)c1Nc1ccc(I)cc1F)N1CC(O)([C@@H]2CCCCN2)C1 [Cobimetinib]
Activating Mutations [1]: Braf: V600 mutation [9]

SMILES: C[C@@H](Oc1cc(-c2cnn(C3CCNCC3)c2)cnc1N)c1c(Cl)ccc(F)c1Cl [Crizotinib]
Activating Mutations [1]: ALK: I117IN, R1275Q [10]

SMILES: C#Cc1cccc(Nc2ncnc3cc(OCCOC)c(OCCOC)cc23)c1 [Erlotinib]
Activating Mutations [1]: EGFR: L858R [12]

SMILES: COc1cc2ncnc(Nc3ccc(F)c(Cl)c3)c2cc1OCCCN1CCOCC1 [Gefitinib]
Activating Mutations [1]: EGFR: L858R, L861Q [14]

SMILES: Cc1ccc(NC(=O)c2ccc(CN3CCN(C)CC3)cc2)cc1Nc1nccc(-c2cccnc2)n1 [Imatinib]
Resistant Mutations [1]: KIT: T670I; also recorded: ABL: T315I [17]

Finding (ERBB2 T798I): Not reported to be in a before/after
SMILES: CS(=O)(=O)CCNCc1ccc(-c2ccc3ncnc(Nc4ccc(OCc5cccc(F)c5)c(Cl)c4)c3c2)o1 [Lapatinib]
Resistant Mutations [1]: HER2: L755S [18]

SMILES: COc1cc2nccc(Oc3ccc(NC(=O)NC4CC4)c(Cl)c3)c2cc1C(N)=O [Lenvatinib]
Activating Mutations [1]: RET: C634W, M918T [19]

DFG conformation bound (kinase DFG motif): binds the DFG out conformation
SMILES: Cc1cn(-c2cc(NC(=O)c3ccc(C)c(Nc4nccc(-c5cccnc5)n4)c3)cc(C(F)(F)F)c2)cn1 [Nilotinib]
Activating Mutations [1]: BCR/ABL: F317L [3]

SMILES: C=CC(=O)Nc1cc(Nc2nccc(-c3cn(C)c4ccccc34)n2)c(OC)cc1N(C)CCN(C)C [Osimertinib]
Activating Mutations [1]: EGFR: T790M [20]

SMILES: CNC(=O)c1cc(Oc2ccc(NC(=O)Nc3ccc(Cl)c(C(F)(F)F)c3)cc2)ccn1 [Sorafenib]
Activating Mutations [1]: PDGFRA: T674I [26]
Resistant Mutations [1]: FIP1LI-PDGFRA: D842V
